# System: BT-474 cancer cells
# Test: Inhibition of BT-474 cell proliferation (CellTiter-Glo)
# Format: cell-based
# Conditions: Homo sapiens, BT-474 cells, 120 hours
# Protocol: BT-474 cancer cells were cultured by using RPMI-1640 medium containing 20% FBS. The BT-474 cancer cells were seeded to a white clear bottom 96 well plate (Corning) at 5,000 cells per well 48 hours before the BT-474 cancer cells were treated with Example Compounds. Example Compounds were diluted in dimethylsulfoxide (3-fold diluted, total 11 concentrations) and 1 μL each was injected so that the final concentration was 0.2 nM to 10 μM. For the measurement of living cells, the cells were stored at room temperature for 10 minutes using the CellTiter-Glo cell viability reagent (Promega) after a predetermined time (120 hours) after the treatment of Example Compounds, and then the luminescence intensity was measured using a reader (SynergyNeo, Biotek). Each test was repeated three times.
# The result value was calculated as a cell growth rate (%) compared to a control group. Graphs were plotted and GI50 values were calculated using the GraphPad Prism version 8.0 program, and the results are shown in Table 18 below.
row,GI50,SMILES
1,≤ 0.05 µM,"COc1cc(Oc2ccn3ncnc3c2)c(C)cc1Nc1ncnc2cc(F)c(NC(=O)/C(F)=C\[C@H]3CCCN3C)cc12 [Example 102, (R,E)-N-(4-((4-([1,2,4]triazolo[1,5-a]pyridin-7-yloxy)-2-methoxy-5-methylphenyl)amino)-7-fluoroquinazolin-6-yl)-2-fluoro-3-(1-methylpyrrolidin-2-yl)acrylamide]"
2,≤ 0.05 µM,"COc1cc(Oc2ccn3ncnc3c2)c(C)cc1Nc1ncnc2cc(F)c(NC(=O)/C(F)=C/[C@H]3CCCN3C)cc12 [Example 103, (R,Z)—N-(4-((4-([1,2,4]triazolo[1,5-a]pyridin-7-yloxy)-2-methoxy-5-methylphenyl)amino)-7-fluoroquinazolin-6-yl)-2-fluoro-3-(1-methylpyrrolidin-2-yl)acrylamide]"
3,> 0.5 µM,"COc1cc2ncnc(Nc3cc(C)c(Oc4ccn5ncnc5c4)cc3OC(F)(F)F)c2cc1NC(=O)/C(F)=C\[C@H]1CCCN1C [Example 105, (R,E)-N-(4-((4-([1,2,4]triazolo[1,5-a]pyridin-7-yloxy)-5-methyl-2-(trifluoromethoxy)phenyl)amino)-7-methoxyquinazolin-6-yl)-2-fluoro-3-(1-methylpyrrolidin-2-yl)acrylamide]"
4,≤ 0.05 µM,"COc1cc2ncnc(Nc3cc(C)c(Oc4ccn5ncnc5c4)cc3OC3CC3)c2cc1NC(=O)/C(F)=C\[C@H]1CCCN1C [Example 106, (R,E)-N-(4-((4-([1,2,4]triazolo[1,5-a]pyridin-7-yloxy)-2-cyclopropoxy-5-methylphenyl)amino)-7-methoxyquinazolin-6-yl)-2-fluoro-3-(1-methylpyrrolidin-2-yl)acrylamide]"
5,≤ 0.05 µM,"COc1cc2ncnc(Nc3cc(C)c(Oc4ccn5ncnc5c4)cc3OC3CC3)c2cc1NC(=O)/C(F)=C/[C@H]1CCCN1C [Example 107, (R,Z)—N-(4-((4-([1,2,4]triazolo[1,5-a]pyridin-7-yloxy)-2-cyclopropoxy-5-methylphenyl)amino)-7-methoxyquinazolin-6-yl)-2-fluoro-3-(1-methylpyrrolidin-2-yl)acrylamide]"
6,> 0.5 µM,"COc1cc2ncnc(Nc3ccc(Oc4ccn5ncnc5c4)cc3OC3COC3)c2cc1NC(=O)/C(F)=C\[C@H]1CCCN1C(=O)OC(C)(C)C [Example 109, tert-butyl (R,E)-2-(3-((4-((4-([1,2,4]triazolo[1,5-a]pyridin-7-yloxy)-2-(oxetan-3-yloxy)phenyl)amino)-7-methoxyquinazolin-6-yl)amino)-2-fluoro-3-oxoprop-1-en-1-yl)pyrrolidine-1-carboxylate]"
7,≤ 0.05 µM,"COc1cc2ncnc(Nc3cc(C)c(Oc4ccn5ncnc5c4)cc3OC)c2cc1NC(=O)/C(F)=C/[C@@H]1CCCN1C [Example 112, (S,Z)—N-(4-((4-([1,2,4]triazolo[1,5-a]pyridin-7-yloxy)-2-methoxy-5-methylphenyl)amino)-7-methoxyquinazolin-6-yl)-2-fluoro-3-(1-methylpyrrolidin-2-yl)acrylamide]"
8,≤ 0.05 µM,"COc1cc(Oc2ccn3ncnc3c2)c(C)cc1Nc1ncnc2cc(N3CC(F)(F)C3)c(NC(=O)/C(F)=C/[C@H]3CCCN3C)cc12 [Example 114, (R,Z)—N-(4-((4-([1,2,4]triazolo[1,5-a]pyridin-7-yloxy)-2-methoxy-5-methylphenyl)amino)-7-(3,3-difluoroazetidin-1-yl)quinazolin-6-yl)-2-fluoro-3-(1-methylpyrrolidin-2-yl)acrylamide]"
9,≤ 0.05 µM,"CCOc1cc2ncnc(Nc3cc(C)c(Oc4ccn5ncnc5c4)cc3OC)c2cc1NC(=O)/C(F)=C/[C@H]1CCCN1C [Example 120, (R,Z)—N-(4-((4-([1,2,4]triazolo[1,5-a]pyridin-7-yloxy)-2-methoxy-5-methylphenyl)amino)-7-ethoxyquinazolin-6-yl)-2-fluoro-3-(1-methylpyrrolidin-2-yl)acrylamide]"
